Source: US20030166703A1, “Method of treatment” (priority 2000, published 2003)

Test system: male Lister Hooded rats
Experiment: Rat Conditioned Emotional Response (CER) Model of Anxiety
Type: in vivo
Settings: 10.0 mg/kg po, 40 min pre-test, hydrochloride; for Suppression Ratio (± SEM): SR 0 = complete suppression, 0.5 = absence of fear; for Rate of responding per minute ±SEM “Dur” period / Rate of responding per minute ±SEM “Pre” period: collapsed across two test trials
From the text: Sixty male Lister Hooded rats with a mean free-feeding weight of 472 g were used. Rats were housed in cages of four and were fed a restricted diet designed to maintain rats at 85% of their free-feeding body weight. A 12:12 light/dark cycle was in effect in the colony room and the rats were trained and tested during the light part of the cycle.
These chambers were housed in outer sound and light attenuating shells equipped with a ventilation fan which also helped to mask external noise. A single operant lever was positioned on the left side of the front panel of the operant chamber, approximately 2 cm above the grid floor. Coulbourn animal test cage grid floor shockers (E13-14) were used to deliver shock (0.4 mA, 0.5 s) to the grid floors (model E-10-10SF). […] A houselight (4.0 mA, 28V) was positioned on the front wall of the chamber, above the food magazine, approximately 1.0 cm below the ceiling.
Once the rats had been placed on a restricted feeding regime, magazine training began. On each of the first four days of training each rat received a 30 minute session of magazine training during which pellets were delivered on a variable interval (VI) 30 s schedule. […] These sessions lasted until either 30 minutes expired or 30 food pellets were delivered. […] On the VI 90 s schedule pellets could be earned by pressing the lever, on average, once every 90 s. The houselight was off throughout all of the training sessions.
CER training sessions were approximately 60 minutes long and usually conducted on 5 days per week. During these sessions, food pellets continued to be available on an VI 90 s schedule as before. However, the rats were now presented with two two-minute long periods of houselight illumination. The first light presentation occurred approximately 20 minutes after the start of the session (range 15-25 minutes) and the second light presentation occurred approximately 20 minutes after the first light presentation (range 15-25 minutes). Light presentations were occasionally followed by a 0.5 second 0.4 mA footshock. In a given session, footshock could follow neither, one, or both of the light presentations. On average rats would receive one shock presentation per session. The rate of lever-pressing during each of the light presentations (the ‘during’ or ‘dur’ period) and the rate of lever-pressing in the two minute interval preceding each light presentation (the ‘pre’ period) was recorded.
Once a reliable SR was observed, occasional test sessions occurred. Test sessions were identical to training session except that footshock was never delivered following the first light presentation. Tests occurred no more frequently than once per week and a baseline training session was always carried out before each test session.
The data were analysed with a mixed within-subject (trials) and between-subjects (drug treatment) analysis of variance (ANOVA). The ANOVA was conducted separately on the pre and during light response rates and on the suppression ratios. Significant interactions were followed by one-way analysis of variance on the data collected for each trial. Significant group effects were analysed using post-hoc Dunnett t-tests.

SMILES: CNC1=Nc2ccc(Cl)cc2C(c2ccccc2)=[N+]([O-])C1.Cl [Chlordiazepoxide, chlordiazepoxide hydrochloride]
- Suppression Ratio (± SEM): 0.37 ± 0.05
- Suppression Ratio (± SEM) (listed as CDP): significant increase in SR
- Rate of responding per minute ±SEM “Dur” period: 13.7 ± 3.1 per minute
- Rate of responding per minute ±SEM “Pre” period: 21.8 ± 2.9 per minute
- Rate of responding per minute ±SEM “Dur” period (listed as CDP): significant increase in dur responding
- Rate of responding per minute ±SEM “Pre” period (listed as chlordiazepoxide): significant increase in pre responding
